Source: BigSolDB 2.1

COC(=O)C(C)(C)N=NC(C)(C)C(=O)OC
Details	solubility (mole fraction)
in THF, 253.85 K	0.13
in THF, 258.55 K	0.156
in THF, 260.95 K	0.175
in THF, 262.85 K	0.194
in THF, 265.15 K	0.224
in THF, 268.85 K	0.263
in THF, 273.65 K	0.326
in THF, 275.95 K	0.364
in THF, 278.45 K	0.404
in THF, 280.65 K	0.443
in THF, 283.15 K	0.497
in THF, 285.65 K	0.561
in THF, 288.05 K	0.614
in THF, 290.55 K	0.674
in THF, 293.15 K	0.75
in acetone, 252.75 K	0.0841
in acetone, 254.45 K	0.0922
in acetone, 257.95 K	0.112
in acetone, 261.25 K	0.136
in acetone, 264.95 K	0.171
in acetone, 267.65 K	0.201
in acetone, 273.55 K	0.276
in acetone, 275.85 K	0.308
in acetone, 278.25 K	0.352
in acetone, 280.55 K	0.395
in acetone, 283.05 K	0.454
in acetone, 285.65 K	0.524
in acetone, 287.95 K	0.591
in acetone, 290.45 K	0.657
in acetone, 293.15 K	0.734
in acetonitrile, 251.75 K	0.0545
in acetonitrile, 255.15 K	0.0705
in acetonitrile, 258.65 K	0.091
in acetonitrile, 262.45 K	0.113
in acetonitrile, 265.15 K	0.137
in acetonitrile, 269.15 K	0.18
in acetonitrile, 273.55 K	0.238
in acetonitrile, 275.75 K	0.278
in acetonitrile, 278.15 K	0.323
in acetonitrile, 280.65 K	0.369
in acetonitrile, 283.25 K	0.432
in acetonitrile, 285.55 K	0.494
in acetonitrile, 287.95 K	0.557
in acetonitrile, 290.85 K	0.638
in acetonitrile, 293.15 K	0.702
in cyclohexane, 281.15 K	0.147
in cyclohexane, 283.55 K	0.233
in cyclohexane, 286.05 K	0.362
in cyclohexane, 288.45 K	0.471
in cyclohexane, 291.05 K	0.601
in cyclohexane, 293.15 K	0.677
in dichloromethane, 252.95 K	0.268
in dichloromethane, 257.05 K	0.281
in dichloromethane, 260.55 K	0.296
in dichloromethane, 264.45 K	0.321
in dichloromethane, 268.05 K	0.352
in dichloromethane, 271.05 K	0.385
in dichloromethane, 274.95 K	0.413
in dichloromethane, 276.65 K	0.451
in dichloromethane, 278.85 K	0.493
in dichloromethane, 281.15 K	0.513
in dichloromethane, 283.55 K	0.552
in dichloromethane, 286.15 K	0.592
in dichloromethane, 288.45 K	0.627
in dichloromethane, 291.05 K	0.67
in dichloromethane, 293.15 K	0.73
in diethyl ether, 254.25 K	0.0921
in diethyl ether, 257.95 K	0.104
in diethyl ether, 260.55 K	0.119
in diethyl ether, 262.45 K	0.136
in diethyl ether, 266.75 K	0.177
in diethyl ether, 268.15 K	0.19
in diethyl ether, 273.55 K	0.268
in diethyl ether, 275.65 K	0.298
in diethyl ether, 278.05 K	0.361
in diethyl ether, 280.55 K	0.4
in diethyl ether, 282.85 K	0.46
in diethyl ether, 285.55 K	0.543
in diethyl ether, 287.95 K	0.599
in diethyl ether, 290.45 K	0.667
in diethyl ether, 293.15 K	0.743
in ethanol, 252.85 K	0.0094
in ethanol, 256.15 K	0.011
in ethanol, 258.65 K	0.0133
in ethanol, 261.85 K	0.0165
in ethanol, 265.85 K	0.0255
in ethanol, 268.55 K	0.0344
in ethanol, 273.25 K	0.0568
in ethanol, 275.85 K	0.0726
in ethanol, 278.15 K	0.094
in ethanol, 280.65 K	0.123
in ethanol, 283.15 K	0.17
in ethanol, 285.65 K	0.238
in ethanol, 288.05 K	0.329
in ethanol, 291.05 K	0.481
in ethanol, 293.25 K	0.625
in ethyl acetate, 252.15 K	0.107
in ethyl acetate, 255.15 K	0.114
in ethyl acetate, 257.85 K	0.134
in ethyl acetate, 260.15 K	0.146
in ethyl acetate, 263.65 K	0.185
in ethyl acetate, 269.25 K	0.246
in ethyl acetate, 273.65 K	0.308
in ethyl acetate, 276.15 K	0.342
in ethyl acetate, 278.45 K	0.389
in ethyl acetate, 280.85 K	0.433
in ethyl acetate, 283.25 K	0.492
in ethyl acetate, 285.65 K	0.558
in ethyl acetate, 288.05 K	0.611
in ethyl acetate, 290.55 K	0.668
in ethyl acetate, 293.25 K	0.744
in isobutanol, 252.65 K	0.0055
in isobutanol, 256.55 K	0.0084
in isobutanol, 259.45 K	0.0111
in isobutanol, 262.95 K	0.013
in isobutanol, 265.65 K	0.0155
in isobutanol, 269.35 K	0.0205
in isobutanol, 273.55 K	0.0388
in isobutanol, 275.95 K	0.0587
in isobutanol, 278.15 K	0.0813
in isobutanol, 280.65 K	0.122
in isobutanol, 283.45 K	0.194
in isobutanol, 285.75 K	0.279
in isobutanol, 288.05 K	0.355
in isobutanol, 290.95 K	0.521
in isobutanol, 293.15 K	0.643
in isopropanol, 252.05 K	0.0065
in isopropanol, 256.25 K	0.0081
in isopropanol, 258.95 K	0.01
in isopropanol, 262.45 K	0.0141
in isopropanol, 265.75 K	0.0199
in isopropanol, 268.75 K	0.0272
in isopropanol, 273.35 K	0.0484
in isopropanol, 275.45 K	0.0653
in isopropanol, 278.05 K	0.0853
in isopropanol, 280.75 K	0.137
in isopropanol, 283.15 K	0.189
in isopropanol, 285.45 K	0.26
in isopropanol, 287.95 K	0.345
in isopropanol, 290.85 K	0.5
in isopropanol, 293.15 K	0.627
in methanol, 252.95 K	0.0142
in methanol, 255.35 K	0.0156
in methanol, 257.65 K	0.0169
in methanol, 261.55 K	0.0203
in methanol, 265.35 K	0.0253
in methanol, 267.15 K	0.0308
in methanol, 273.55 K	0.0633
in methanol, 275.85 K	0.0722
in methanol, 278.65 K	0.0863
in methanol, 280.65 K	0.122
in methanol, 283.05 K	0.182
in methanol, 285.55 K	0.248
in methanol, 288.15 K	0.364
in methanol, 290.65 K	0.482
in methanol, 293.15 K	0.626
in n-butanol, 252.35 K	0.0064
in n-butanol, 256.35 K	0.0076
in n-butanol, 259.15 K	0.0091
in n-butanol, 262.55 K	0.0111
in n-butanol, 265.55 K	0.0145
in n-butanol, 269.75 K	0.0232
in n-butanol, 273.65 K	0.0385
in n-butanol, 276.15 K	0.0541
in n-butanol, 278.35 K	0.0801
in n-butanol, 281.15 K	0.123
in n-butanol, 283.55 K	0.18
in n-butanol, 285.65 K	0.251
in n-butanol, 288.15 K	0.33
in n-butanol, 291.05 K	0.486
in n-butanol, 293.15 K	0.63
in n-propanol, 253.35 K	0.0088
in n-propanol, 257.05 K	0.0107
in n-propanol, 259.65 K	0.0133
in n-propanol, 262.15 K	0.0162
in n-propanol, 266.25 K	0.0234
in n-propanol, 271.05 K	0.0385
in n-propanol, 274.95 K	0.0613
in n-propanol, 276.65 K	0.0783
in n-propanol, 278.85 K	0.098
in n-propanol, 281.15 K	0.125
in n-propanol, 283.55 K	0.173
in n-propanol, 286.15 K	0.25
in n-propanol, 288.45 K	0.352
in n-propanol, 291.05 K	0.47
in n-propanol, 293.15 K	0.611
in tetrachloromethane, 252.55 K	0.109
in tetrachloromethane, 256.95 K	0.125
in tetrachloromethane, 260.35 K	0.144
in tetrachloromethane, 264.05 K	0.182
in tetrachloromethane, 266.85 K	0.214
in tetrachloromethane, 269.55 K	0.242
in tetrachloromethane, 273.65 K	0.314
in tetrachloromethane, 276.15 K	0.349
in tetrachloromethane, 278.45 K	0.393
in tetrachloromethane, 280.75 K	0.445
in tetrachloromethane, 283.35 K	0.506
in tetrachloromethane, 285.75 K	0.564
in tetrachloromethane, 288.15 K	0.632
in tetrachloromethane, 290.55 K	0.696
in toluene, 253.45 K	0.104
in toluene, 256.35 K	0.119
in toluene, 259.55 K	0.141
in toluene, 262.55 K	0.161
in toluene, 264.85 K	0.184
in toluene, 269.55 K	0.237
in toluene, 273.65 K	0.286
in toluene, 276.05 K	0.326
in toluene, 278.25 K	0.367
in toluene, 280.65 K	0.41
in toluene, 283.15 K	0.47
in toluene, 285.55 K	0.545
in toluene, 288.05 K	0.597
in toluene, 290.95 K	0.67
in toluene, 293.15 K	0.731
